Test results reported in PubChem BioAssay AID330 (DTP/NCI, 2004).
Several values for one entry are separate records, joined by “and”; a condition that tells them apart may be missing. Equal values may be shown once. Inconclusive results and toxic doses are left out. Rule for the calls: active = survival T/C of 150% or more; inactive = T/C below 125% in these data.

Test system: P388 leukemia ip, CD2F1 mice, survival T/C
Experiment: NCI In Vivo Anticancer Drug Screen. Data for tumor model P388 Leukemia (intraperitoneal) in CD2F1 (CDF1) mice
Conditions: endpoint: median survival time, higher = longer survival
Outline: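 Mice carrying the transplanted tumor received test compound or vehicle. Survival was recorded in each group, and the value is the treated-group measurement divided by that of the vehicle-treated control group.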

[1] = dose: 50.0 mg/kg/injection, schedule: Q01DX005 (ip), vehicle: saline with Tween-80
[2] = dose: 100.0 mg/kg/injection, schedule: Q01DX005 (ip), vehicle: saline with Tween-80
[3] = dose: 200.0 mg/kg/injection, schedule: Q01DX005 (ip), vehicle: saline with Tween-80
[4] = dose: 50.0 mg/kg/injection, schedule: Q01DX001 (ip), vehicle: Klucel (hydroxypropylcellulose) (HPC)
[5] = dose: 100.0 mg/kg/injection, schedule: Q01DX001 (ip), vehicle: Klucel (hydroxypropylcellulose) (HPC)
[6] = dose: 50.0 mg/kg/injection, schedule: Q01DX009 (ip), vehicle: saline with Tween-80
[7] = dose: 100.0 mg/kg/injection, schedule: Q01DX009 (ip), vehicle: saline with Tween-80
[8] = dose: 200.0 mg/kg/injection, schedule: Q01DX009 (ip), vehicle: saline with Tween-80
[9] = dose: 60.0 mg/kg/injection, schedule: Q01DX005 (ip), vehicle: saline with Tween-80
[10] = dose: 120.0 mg/kg/injection, schedule: Q01DX005 (ip), vehicle: saline with Tween-80

Measured: T/C

O=c1c2[nH]c3ccccc3sc=2c(=O)n1-c1c(F)c(F)c(F)c(F)c1F
inactive: [1] 109 % of control | [2] 103 % of control | [3] 100 % of control

COC(=O)c1c(C(=O)c2ccccc2)nnn1-c1cccc(C(F)(F)F)c1
inactive: dose: 60.0 mg/kg/injection, schedule: Q01DX005 (ip), vehicle: Klucel + Tween-80 102 % of control | dose: 120.0 mg/kg/injection, schedule: Q01DX005 (ip), vehicle: Klucel + Tween-80 103 % of control | dose: 240.0 mg/kg/injection, schedule: Q01DX005 (ip), vehicle: Klucel + Tween-80 107 % of control

CNC(=O)OCc1c(Cl)nc2n1CCS2
inactive: dose: 25.0 mg/kg/injection, schedule: Q01DX001 (ip), vehicle: Klucel (hydroxypropylcellulose) (HPC) 109 % of control | [4] 109 % of control | [5] 106 % of control

C=CN=NNc1cc(OC)ccc1OC
inactive: dose: 100.0 mg/kg/injection, schedule: Q04DX003 (ip), vehicle: saline + Tween-80 + alcohol 105 % of control | dose: 200.0 mg/kg/injection, schedule: Q04DX003 (ip), vehicle: saline + Tween-80 + alcohol 103 % of control | dose: 400.0 mg/kg/injection, schedule: Q04DX003 (ip), vehicle: saline + Tween-80 + alcohol 102 % of control

O=C(CCc1cc2[nH]c1c(-c1ccccc1)c1nc(c(-c3ccccc3)c3ccc([nH]3)c(-c3ccccc3)c3nc(c2-c2ccccc2)C=C3)C=C1)NCCCn1ccnc1
inactive: [4] 99 % of control | [5] 91 % of control | dose: 200.0 mg/kg/injection, schedule: Q01DX001 (ip), vehicle: Klucel (hydroxypropylcellulose) (HPC) 91 % of control | dose: 400.0 mg/kg/injection, schedule: Q01DX001 (ip), vehicle: Klucel (hydroxypropylcellulose) (HPC) 96 % of control

[Fe].[c-]1[c-][c-][c-](Cn2nnc3ccccc32)[c-]1.[c-]1[c-][c-][cH-][c-]1
inactive: [6] 105 % of control | [7] 102 % of control | [8] 95 % of control

CCOC(=O)Cc1cc2c(cc1C)CNC(=O)C2
inactive: dose: 6.25 mg/kg/injection, schedule: Q01DX009 (ip), vehicle: distilled water + Tween-80 94 % of control | dose: 12.5 mg/kg/injection, schedule: Q01DX009 (ip), vehicle: distilled water + Tween-80 100 % of control | dose: 25.0 mg/kg/injection, schedule: Q01DX009 (ip), vehicle: distilled water + Tween-80 100 % of control | dose: 50.0 mg/kg/injection, schedule: Q01DX009 (ip), vehicle: distilled water + Tween-80 94 % of control | dose: 100.0 mg/kg/injection, schedule: Q01DX009 (ip), vehicle: distilled water + Tween-80 94 % of control | dose: 200.0 mg/kg/injection, schedule: Q01DX009 (ip), vehicle: distilled water + Tween-80 90 % of control | dose: 400.0 mg/kg/injection, schedule: Q01DX009 (ip), vehicle: distilled water + Tween-80 102 % of control

CCC(=O)NN1C(=O)c2ccccc2C1=O
inactive: [9] 103 % of control | [10] 104 % of control | dose: 240.0 mg/kg/injection, schedule: Q01DX005 (ip), vehicle: saline with Tween-80 99 % of control

CCN(CC)CCNc1nc(NCCN(CC)CC)c2cn[nH]c2n1
inactive: dose: 1.5 mg/kg/injection, schedule: Q01DX005 (ip), vehicle: saline 99 % of control | dose: 3.0 mg/kg/injection, schedule: Q01DX005 (ip), vehicle: saline 103 % of control | dose: 6.0 mg/kg/injection, schedule: Q01DX005 (ip), vehicle: saline 100 % of control and 102 % of control

CC1CC(=O)NC(=O)N1 (centres undefined)
inactive: [6] 96 % of control | [7] 102 % of control | dose: 100.0 mg/kg/injection, schedule: Q04DX003 (ip), vehicle: saline with Tween-80 97 % of control | [8] 99 % of control | dose: 200.0 mg/kg/injection, schedule: Q04DX003 (ip), vehicle: saline with Tween-80 94 % of control | dose: 400.0 mg/kg/injection, schedule: Q04DX003 (ip), vehicle: saline with Tween-80 103 % of control

O=c1ccc(=O)n(-c2ccccc2)[nH]1
inactive: dose: 6.25 mg/kg/injection, schedule: Q01DX009 (ip), vehicle: saline with Tween-80 114 % of control | dose: 12.5 mg/kg/injection, schedule: Q01DX009 (ip), vehicle: saline with Tween-80 100 % of control | dose: 25.0 mg/kg/injection, schedule: Q01DX009 (ip), vehicle: saline with Tween-80 118 % of control | [6] 119 % of control

CNC(=O)Sc1ccc(Cl)cc1
inactive: dose: 50.0 mg/kg/injection, schedule: Q01DX009 (ip), vehicle: suspension in saline 102 % of control | dose: 100.0 mg/kg/injection, schedule: Q01DX009 (ip), vehicle: suspension in saline 105 % of control | dose: 200.0 mg/kg/injection, schedule: Q01DX009 (ip), vehicle: suspension in saline 113 % of control

CSC1=Nc2cc3c(cc2C(=O)N2C[C@H](O)CC12)OCO3 (some centres undefined)
inactive: [1] 108 % of control | [2] 102 % of control | [3] 94 % of control

CCCCP(=O)(CCCC)CCCC.CCCCP(=O)(CCCC)CCCC.CCCCP(=O)(CCCC)CCCC.CCCCP(=O)(CCCC)CCCC.[Ce+3].[O-][Cl+3]([O-])([O-])O
inactive: [6] 97 % of control | [7] 92 % of control | [8] 86 % of control

O=C(O)c1oc2ccccc2c1C=C(c1ccccc1)c1ccccc1
inactive: [6] 101 % of control | [7] 101 % of control

COc1cc2c(cc1OC)C1CC(=O)CCN1CC2 (centres undefined)
inactive: dose: 12.5 mg/kg/injection, schedule: Q01DX009 (ip), vehicle: Klucel (hydroxypropylcellulose) (HPC) 111 % of control | dose: 25.0 mg/kg/injection, schedule: Q01DX009 (ip), vehicle: Klucel (hydroxypropylcellulose) (HPC) 106 % of control | dose: 50.0 mg/kg/injection, schedule: Q01DX009 (ip), vehicle: Klucel (hydroxypropylcellulose) (HPC) 101 % of control | dose: 100.0 mg/kg/injection, schedule: Q01DX009 (ip), vehicle: Klucel (hydroxypropylcellulose) (HPC) 107 % of control

FC(F)(F)SN1CN(SC(F)(F)F)CN(SC(F)(F)F)CN(SC(F)(F)F)C1
inactive: dose: 60.0 mg/kg/injection, schedule: Q01DX005 (ip), vehicle: saline 103 % of control and 96 % of control | dose: 120.0 mg/kg/injection, schedule: Q01DX005 (ip), vehicle: saline 96 % of control | dose: 240.0 mg/kg/injection, schedule: Q01DX005 (ip), vehicle: saline 100 % of control

Cc1c2cnccc2c(C)c2c1c1ccccc1n2CCCCCCCCCCCCn1c2ccccc2c2c(C)c3cnccc3c(C)c21
inactive: dose: 25.0 mg/kg/injection, schedule: Q04DX002 (ip), vehicle: saline with Tween-80 98 % of control | dose: 50.0 mg/kg/injection, schedule: Q04DX002 (ip), vehicle: saline with Tween-80 100 % of control | dose: 100.0 mg/kg/injection, schedule: Q04DX002 (ip), vehicle: saline with Tween-80 100 % of control | dose: 200.0 mg/kg/injection, schedule: Q04DX002 (ip), vehicle: saline with Tween-80 98 % of control

COCC(O)Cn1ccnc1N=Nc1ccccc1 (centres undefined)
inactive: [9] 103 % of control | [10] 102 % of control

CCOC(=O)C(=CNc1cc(OC(C)=O)ccc1C)C(=O)OCC
inactive: dose: 50.0 mg/kg/injection, schedule: Q01DX005 (ip), vehicle: Klucel (hydroxypropylcellulose) (HPC) 110 % of control | dose: 100.0 mg/kg/injection, schedule: Q01DX005 (ip), vehicle: Klucel (hydroxypropylcellulose) (HPC) 100 % of control | dose: 200.0 mg/kg/injection, schedule: Q01DX005 (ip), vehicle: Klucel (hydroxypropylcellulose) (HPC) 96 % of control
